Residues, ends and D or L forms follow the SMILES beside them. *: point of attachment. FITC = O=C1OC2(c3ccc(O)cc3Oc3cc(O)ccc32)c2ccc(NC(=S)*)cc21

The values below come from publication PMC10333884, “Large‐scale phosphomimetic screening identifies phospho‐modulated motif‐based protein interactions” (Molecular Systems Biology, 2023).

In one assay the test system is PIN1 WW domain. The experiment in a line: FP displacement assay, PIN1 WW domain (GST-tagged). The class given is binding, human. The conditions noted are these: probe FITC-SMAD3, technical triplicates. As for the experimental part: For FP, ITC and crystallisation, the tag was removed with the appropriate protease either on beads (0.1 mg/ml thrombin (Cytiva) in PBS, 1 mM dithiothreitol (DTT)) or by dialysis in cleavage buffer (Human Rhinovirus (HRV) 3C protease: 50 mM Tris–HCl pH 7.4, 150 mM NaCl, 1 mM β‐mercaptoethanol), both procedures were overnight. In case of HRV protease cleavage, the tag was separated from the target protein domain by reverse ion metal affinity chromatography using Ni^2+ beads for purification, whereas thrombin was removed using a benzamidine column (Cytiva). Affinity measurements for SNX27 PDZ were performed on the MBP‐tagged construct, as well as PIN1 WW domain on the GST‐tagged construct. For FP and ITC, proteins were dialysed in 50 mM sodium phosphate buffer pH 7.4, 1 mM DTT. For crystallisation of the NTD of clathrin, the protein was further purified by a S200 Sepharose column (Cytiva) using 20 mM Tris–HCl pH 7.4, 150 mM NaCl and 1 mM DTT.
FP experiments were performed as described previously (Kliche et al, [2021]). Shortly, in order to monitor the binding event, FITC‐labelled peptides were used (excitation 495 nm, emission: 535 nm) and the FP signal was recorded in mP on a SpectraMax iD5 Multi‐Mode Microplate Reader (Molecular Devices) by measuring the emitted light in two angels. […]

The target in assay [1] is T1, AP2 μ2 (Homo sapiens, UniProt Q96CW1).
T1 construct: AP2_Mu__Q96CW1_160_435; GST (cleaved yes); made in house; host or cells: Escherichia coli BL21-Gold(DE3)
T1 sequence (Q96CW1 160-435): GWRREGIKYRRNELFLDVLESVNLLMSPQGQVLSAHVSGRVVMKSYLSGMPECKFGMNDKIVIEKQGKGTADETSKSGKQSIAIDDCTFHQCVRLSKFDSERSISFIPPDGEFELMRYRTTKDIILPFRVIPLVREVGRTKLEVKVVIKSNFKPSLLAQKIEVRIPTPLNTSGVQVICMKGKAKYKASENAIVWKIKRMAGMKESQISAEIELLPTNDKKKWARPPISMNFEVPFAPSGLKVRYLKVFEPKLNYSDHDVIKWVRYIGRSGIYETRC
The experiment in a line: FP displacement assay, AP2 μ2. The class given is binding. The conditions noted are these: probe FITC-ATG9A 5 nM, 50 mM sodium phosphate pH 7.4, room temperature, at least three technical replicates, read-out: KD values ± SEM. As for the experimental part:
(§1) FP experiments were performed as described previously (Kliche et al, [2021]). Shortly, in order to monitor the binding event, FITC‐labelled peptides were used (excitation 495 nm, emission: 535 nm) and the FP signal was recorded in mP on a SpectraMax iD5 Multi‐Mode Microplate Reader (Molecular Devices) by measuring the emitted light in two angels. The measurements were performed at room temperature and prepared in nonbinding black half area 96‐well microplates (Corning®; 50 μl/well). For measuring direct binding, that is saturation curves, a 1:1 dilution series of protein domain (25 μl/well) was generated in 50 mM sodium phosphate buffer pH 7.4 and the measurement performed with 5 nM FITC‐labelled peptide (25 μl/well). The buffer‐corrected values were subsequently plotted with PRISM and fitted to the quadratic equation (Gianni et al, [2005]).
The 1:1 dilution series in this experiment was performed with the unlabelled peptide in 50 mM sodium phosphate buffer pH 7.4, so that each well‐contained unlabelled peptide (25 μl) at a certain concentration and pre‐formed complex (25 μl). The KD values of this indirectly monitored binding event were calculated as described previously (Nikolovska‐Coleska et al, [2004]). All measurements were at least in technical triplicates as well as biological duplicates when indicated. An amplitude shift between repeat measurements in the displacement experiments was occasionally observed due to variations in the protein preparations. If that was the case, the “active” protein concentration was back‐calculated according to the quadratic equation from the saturation curves performed in parallel. By comparing the active protein concentrations in the complex between different protein preparations, the amplitude was normalised.

The target in assay [2] is T1, AP2 μ2. The experiment in a line: Phosphomimetic ProP-PD selection, AP2 μ2. The conditions noted are these: phosphomimetic enrichment score of the wild-type/phosphomimetic (E) pair at the phosphosite, PM_HD2 phage selection, all overlapping peptides and replicates; positive = phosphomimetic enhances binding; P-value in brackets not taken. As for the experimental part: Selections using the PM_HD2 phage library were performed as described previously with minor modification to the original protocol. The corresponding tag protein (either GST or MBP) was first used during negative selections. Selections were run for 4 days. • Bait and tag proteins (10–15 μg in 100 μl PBS) were immobilised in 96‐well MaxiSorb plate (NUNC) o.n. at 4°C. • Escherichia coli OmniMax bacteria were grown in 2YT medium supplemented with tetracycline (100 μg/ml) at 37°C and 200 rpm. • Plates with immobilised bait/tag proteins were blocked with 0.5% BSA in PBS for 1 h at 4°C. • Phage library (10 μl/well) was prepared by diluting 10× with PBS and adding one‐fourth of the volume of PEG/NaCl. For phage precipitation, prepared library was incubated for 10 min on ice followed by centrifugation for 10 min at 10,000 × g at 4°C. […]
Based on the results from phage pool ELISAs, samples from selection Day 3 and 4 were selected for NGS, as described previously (Benz et al, [2022]). • Peptide coding regions were amplified and dual‐barcoded by PCR. […] From the columns, samples were eluted with 30 μl TE (10 mM Tris–HCl, 1 mM EDTA. pH 7.5) buffer and quantified with Quant‐iT PicoGreen dsDNA Assay Kit. • Samples were sequenced on MiSeq (MSC 2.5.0.5/RTA 1.18.54) with a 151 nt (Read1) setup using “Version3” chemistry. […]

Another assay addresses T2, GGA1 VHS (Homo sapiens, UniProt Q9UJY5).
T2 construct: GGA1_VHS__Q9UJY5_1_157; GST (cleaved yes); made in house; host or cells: Escherichia coli BL21-Gold(DE3)
T2 sequence (Q9UJY5 1-157): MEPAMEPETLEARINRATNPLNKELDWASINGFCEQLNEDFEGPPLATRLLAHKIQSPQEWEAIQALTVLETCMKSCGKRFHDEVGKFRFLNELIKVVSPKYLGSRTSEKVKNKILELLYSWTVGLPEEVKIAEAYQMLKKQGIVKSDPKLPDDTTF
Kind of assay: FP saturation experiment, GGA1 VHS. The conditions noted are these: FP saturation (direct binding), 5 nM FITC-labelled peptide, 50 mM sodium phosphate pH 7.4, room temperature; at least technical triplicates; reference for probe peptide RiboVD, Mihalič et al, to be published; read-out: KD [µM] + SE. How it is done: as §1

In a further assay the target is T3, KPNA4 ARM minor (Homo sapiens, UniProt O00629).
T3 construct: 60-487; GST (cleaved yes); made in house; host or cells: Escherichia coli BL21-Gold(DE3)
T3 sequence (O00629 60-487): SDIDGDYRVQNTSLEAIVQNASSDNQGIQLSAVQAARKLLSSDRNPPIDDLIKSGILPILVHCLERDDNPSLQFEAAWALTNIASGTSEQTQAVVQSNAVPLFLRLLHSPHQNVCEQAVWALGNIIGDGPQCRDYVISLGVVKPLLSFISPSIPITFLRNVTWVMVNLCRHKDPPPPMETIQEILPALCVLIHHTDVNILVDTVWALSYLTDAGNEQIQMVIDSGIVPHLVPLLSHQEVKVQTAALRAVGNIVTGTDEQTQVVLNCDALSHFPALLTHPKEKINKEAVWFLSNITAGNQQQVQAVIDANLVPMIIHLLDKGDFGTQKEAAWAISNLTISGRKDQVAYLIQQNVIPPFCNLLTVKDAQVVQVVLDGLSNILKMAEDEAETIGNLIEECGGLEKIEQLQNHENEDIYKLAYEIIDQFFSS
The experiment in a line: FP saturation experiment, KPNA4 ARM (minor). The conditions noted are these: FP saturation (direct binding), 5 nM FITC-labelled peptide, 50 mM sodium phosphate pH 7.4, room temperature; at least technical triplicates; reference for probe peptide PMID: 35044719; read-out: KD [µM] + SE. How it is done:
as §1

For a further assay, the target named is T4, GABARAPL2 ATG8 (Homo sapiens, UniProt P60520).
T4 construct: GABARAPL2_ATG8__P60520_2_115; GST (cleaved yes); made in house; host or cells: Escherichia coli BL21-Gold(DE3)
T4 sequence (P60520 2-115): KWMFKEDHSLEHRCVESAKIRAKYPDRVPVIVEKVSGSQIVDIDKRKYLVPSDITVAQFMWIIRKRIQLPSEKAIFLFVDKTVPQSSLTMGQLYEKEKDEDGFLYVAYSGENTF
Kind of assay: FP saturation experiment, GABARAPL2 ATG8. The conditions noted are these: FP saturation (direct binding), 5 nM FITC-labelled peptide, 50 mM sodium phosphate pH 7.4, room temperature; at least technical triplicates; reference for probe peptide PMID: 33436498; read-out: KD [µM] + SE. How it is done: as §1

The target of the next assay is T5, MAP1LC3B ATG8 (Homo sapiens, UniProt Q9GZQ8).
T5 construct: MAP1LC3B ATG8; made in house; host or cells: Escherichia coli BL21-Gold(DE3)
Kind of assay: FP saturation experiment, MAP1LC3B ATG8. The conditions noted are these: FP saturation (direct binding), 5 nM FITC-labelled peptide, 50 mM sodium phosphate pH 7.4, room temperature; at least technical triplicates; reference for probe peptide PMID: 33436498; read-out: KD [µM] + SE. How it is done: as §1

With “H3COC-MSETQSS(pS/E)PTKGVLMY-NH2 [PIAS2_493–507 wt, wild-type PIAS2 493-507 peptide]”, in the assay on PIN1 WW domain, the “binding in FP displacement experiment” value is on record as “none of the peptides tested”.

In general, Kd refers to the free concentration of one partner at which half of the binding sites on the other are occupied at equilibrium, for simple one-to-one binding. As to `CC[C@H](C)[C@H](NC(=O)[C@@H](NC(=O)[C@@H]1CCCN1C(=O)[C@H](CCC(=O)O)NC(=O)[C@H](CO)NC(=O)[C@H](C)NC(=O)[C@@H]1CCCN1C(=O)[C@H](CCSC)NC(=O)[C@@H]1CCCN1C(=O)[C@H](CCC(N)=O)NC(=O)[C@H](Cc1ccc(O)cc1)NC(=O)[C@@H]1CCCN1C(=O)[C@@H](NC(=O)[C@@H](NC(=O)[C@H](CCSC)NC(C)=O)[C@@H](C)O)[C@@H](C)CC)C(C)C)C(=O)N[C@@H](CS)C(N)=O` [PCBP1_179–194 E] (Ac-MTIPYQPMPASEPVIC-NH2), the equilibrium dissociation constant (Kd) on AP2 μ2 [1] was 2.05 ± 0.09 µM. Besides, the PES on AP2 μ2 [2] is listed as 1 (0.15).

On to `CC(=O)N[C@@H](Cc1ccccc1)C(=O)N1CCC[C@H]1C(=O)N[C@@H](CO)C(=O)N[C@@H](CCC(=O)O)C(=O)N[C@@H](Cc1ccc(O)cc1)C(=O)N[C@H](C(=O)N[C@@H](CCCCN)C(=O)N[C@@H](CC(C)C)C(=O)N[C@@H](CC(C)C)C(=O)N[C@@H](CCC(=O)O)C(=O)N[C@@H](CCC(=O)O)C(=O)N[C@@H](CC(N)=O)C(=O)N[C@@H](CCC(=O)O)C(=O)N[C@H](C(=O)N[C@@H](CCC(=O)O)C(=O)N[C@@H](C)C(N)=O)[C@@H](C)O)[C@@H](C)O` [BAIAPL1_392–407 E] (Ac-FPSEYTKLLEENETEA-NH2), for which the dissociation constant (Kd) at AP2 μ2 [1] was 0.49 ± 0.08 µM. Moreover, at AP2 μ2 [2], the PES is 1.2 (0.095).

On to `CC[C@H](C)[C@H](NC(=O)[C@H](Cc1c[nH]cn1)NC(=O)[C@H](CC(C)C)NC(=O)[C@H](CC(C)C)NC(=O)[C@H](CC(=O)O)NC(=O)[C@H](CCC(=O)O)NC(=O)[C@H](CC(=O)O)NC(=O)[C@H](CO)NC(=O)[C@H](CC(=O)O)NC(=O)[C@H](CC(=O)O)NC(=S)Nc1ccc2c(c1)C(=O)OC21c2ccc(O)cc2Oc2cc(O)ccc21)C(=O)O` [FITC-IGF2R] ({FITC}-DDSDEDLLHI-OH), for which the Kd on GGA1 VHS worked out at 31 ± 4 µM.

As to `CC[C@H](C)[C@H](NC(=O)[C@H](C)NC(=O)[C@H](CCCNC(=N)N)NC(=O)CNC(=O)[C@@H](NC(=O)[C@H](CCCNC(=N)N)NC(=O)CNC(=O)[C@H](CCC(=O)O)NC(=O)[C@H](CCSC)NC(=O)[C@H](CCSC)NC(=O)[C@H](CC(=O)O)NC(=O)[C@H](Cc1ccc(O)cc1)NC(=O)[C@@H](NC(=O)[C@H](CCCNC(=N)N)NC(=O)[C@H](CCCCN)NC(=O)[C@@H]1CCCN1C(=S)Nc1ccc2c(c1)C(=O)OC21c2ccc(O)cc2Oc2cc(O)ccc21)[C@@H](C)O)C(C)C)C(N)=O` [FITC-NCOR2] ({FITC}-PKRTYDMMEGRVGRAI-NH2), the Kd on KPNA4 ARM minor was determined as 0.013 ± 0.0008 µM.

For `CC(C)C[C@H](NC(=O)[C@H](Cc1c[nH]cn1)NC(=O)[C@@H](NC(=O)[C@H](Cc1c[nH]c2ccccc12)NC(=O)[C@H](CC(=O)O)NC(=O)[C@H](CC(=O)O)NC(=O)[C@H](CC(=O)O)NC(=S)Nc1ccc2c(c1)C(=O)OC21c2ccc(O)cc2Oc2cc(O)ccc21)[C@@H](C)O)C(=O)N[C@@H](CO)C(=O)N[C@@H](CO)C(=O)N[C@@H](CCCCN)C(N)=O` [FITC-SQSTM1], the Kd turned out to be 11 ± 1 µM at GABARAPL2 ATG8 and 2.5 ± 0.2 µM on MAP1LC3B ATG8.
